Assay results published in patent publication US10086028B2, “Method for treating vascular inflammation, improving skin beauty and improving male sexual function using ginseng berry” (AMOREPACIFIC CORPORATION, priority 2007, dated 2018).

Tests used:
[1] = test system: melanocytes (MeI-Ab cells); experiment: Inhibition of melanin generation in mouse melanocytes; assay type: cell-based, C57BL/6 mouse; conditions: added for 3 consecutive days; sample 10 μg/mL
Experimental: Inhibition of melanin generation in mouse melanocytes was evaluated in order to confirm the effect of the ginseng berry extract of Example 1 of inhibiting melanin generation.
First, melanocytes (MeI-Ab cells) derived from C57BL/6 mouse [Dooley, T. P. et al, Skin Pharmacol., 7, pp. 188-200] were cultured in Dulbecco's modified Eagle's medium (DMEM) containing 10% FBS, 100 nM 2-O-tetradecanoylphorbol-13-acetate and 1 nM cholera toxin under the condition of 37° C., 5% CO2. The cultured MeI-Ab cells were separated using 0.25% trypsin-EDTA, and cultured on a 24-well plate to a concentration of 10^5 cells/well. Starting from day 2, the ginseng berry extract of Example 1 (1 μg/mL, 10 μg/mL and 100 μg/mL), the ginseng berry saponin concentrate of Example 2 (10 μg/mL), the ginseng root extract of Comparative Example 1 (10 μg/mL) or ginsenosides Rg1, Rg2, Rh1 or Re (10 μg/mL) was added for 3 consecutive days. Hydroquinone (10 μg/mL) was used as a positive control substance. Then, after removing the medium and washing with PBS, the cells were dissolved with 1 N sodium hydroxide. Absorbance was measured at 400 nm, and melanin generation inhibition ratio was calculated by Equation 3.

[2] = test system: endothelial cells (HUVEC); experiment: Increase of NO generation in endothelial cells (Test Example 12); assay type: cell-based
Experimental: Endothelial cells were adhered on a gelatin-coated 24-well plate, with a density of 2.5×10^4 cells/well. The cells were cultured for 12 hours using a growth medium. The endothelial cells were pre-treated for 12 hours, using the ginseng berry extract, the ginseng berry saponin concentrate or the ginseng root extract (Examples 1-2 and Comparative Example 1). Then, they, including a non-treated group, were treated with 10 μmol/L DAF-FM diacetate (Molecular Probe, Oreg.) at 37° C. for 30 minutes in an FBS-free M199 medium. Subsequently, the endothelial cells were washed 3 times with an FBS-free M199 medium, put in a parallel plate flow chamber, and stimulated with light isolated from a mercury lamp. Excitation wavelength was 488 nm. Fluorescence of 515 nm is emitted when DAF binds with NO.
Increase of generation of NO, which is known as an important signal transduction substance related with penile erection, in endothelial cells was observed after treating with the ginseng berry extract. Experiment was carried out in a manner substantially the same as that of Test Example 2, but L-arginine was treated together with the ginseng root extract of Comparative Example 1 and the ginseng berry extract of Example 1. […]

[3] = test system: human HaCaT keratinocytes; experiment: Antioxidative effect: removal of UV-generated ROS in HaCaT keratinocytes; assay type: cell-based; conditions: ROS generated by UV in HaCaT; sample 10 μg/mL (Trolox given as (10))
Description: Antioxidative effect of the ginseng berry extract was investigated by comparing the ability of removing reactive oxygen species (ROS) generated in human HaCaT keratinocytes by ultraviolet (UV) radiation.

[4] = test system: matrix metalloproteinase I (MMP-1); experiment: Inhibition of UVB-induced MMP-1 expression in human fibroblasts (ELISA); assay type: cell-based; conditions: UVB 40 mJ/cm^2, 2nd day, relative to UV control; 10 ng/mL
Experimental: Human fibroblasts were cultured on a 12-well plate incubator to a concentration of 10^5 cells/well. Then, after irradiating UVB at 40 mJ/cm^2, the medium was replaced by one including the ginseng berry extract of Example 1 (1 μg/mL and 10 μg/mL), the ginseng berry saponin concentrate of Example 2 (10 μg/mL), the ginseng root extract of Comparative Example 1 (10 μg/mL) or ginsenosides Rg1, Rg2, Rh1 or Re (10 μg/mL). 10 ng/mL TGF-β was used as a positive control substance. On the 2nd day of culturing, the cells were harvested and the quantity of produced matrix metalloproteinase I (MMP-1) was analyzed using ELISA. The result was calculated as a relative value with respect to the control group, which was irradiated with UV without treating with a test substance.

type I procollagen = experiment: Type I procollagen assay in human fibroblasts (ELISA); assay type: cell-based; conditions: 3rd day, 10 ng/mL
Experimental: Human fibroblasts were cultured on a 12-well plate incubator to a concentration of 10^5 cells/well. Then, the medium was replaced by one including the ginseng berry extract of Example 1 (1 μg/mL and 10 μg/mL), the ginseng berry saponin concentrate of Example 2 (10 μg/mL), the ginseng root extract of Comparative Example 1 (10 μg/mL) or ginsenosides Rg1, Rg2, Rh1 or Re (10 μg/mL). 10 ng/mL transforming growth factor β (TGF-β) was used as a positive control substance.
On the 3rd day of culturing, the cells were harvested and the quantity of produced type I procollagen was analyzed using ELISA. The result was calculated as a relative value with respect to the negative control group, which was not treated with a test substance.

Oc1ccc(O)cc1 [Hydroquinone]
Melanin generation inhibition ratio (%) [1]: 39%

N=C(N)NCCC[C@H](N)C(=O)O [L-Arginine]
increased NO generation with respect to the negative control group ([2]; 250 μM): about 2.7 times
increased NO generation with respect to the negative control group ([2]; 500 μM): ~5.5 times

Cc1c(C)c2c(c(C)c1O)CCC(C)(C(=O)O)O2 (stereo not drawn) [Trolox]
Antioxidative effect (%) [3]: 33%

transforming growth factor β [TGF-β]
MMP-1 expression (%) [4]: 65%
Procollagen activity relative to negative control (%) (type I procollagen): 145%
